Experimental data reported in patent US10500301B2, “Agent for salting out active principles in dressings containing at least one of fatty substance” (URGO RECHERCHE INNOVATION ET DEVELOPPEMENT, priority 2007, dated 2019).

What was measured:
[1] = Release of the active substance from interface dressings into physiological saline solution, HPLC assay; assay type: physicochemical; details: Sepinov EMT 10 versus Montanox 80 as releasing agent in interface dressings, irrespective of the active substance
Procedure: In the case of interface dressings, prepared from the masses of examples 1 to 4 and 13 to 18, samples of 25 cm^2 of dressing (cut with a calibrated punch and precisely weighed) were introduced into an Erlenmeyer flask containing 10 ml of physiological saline solution. The glassware, hermetically sealed, was placed in an incubator at 37° C. for 24 h. The supernatant was removed and filtered. The amount of active substance was assayed by HPLC (high performance liquid chromatography) according to the methods described below.
The following conditions for assaying by high performance liquid chromatography (HPLC) were used: […]
The detection threshold for the potassium sucrose octasulfate was 0.06 mg/ml. When no peak was detected, the result was increased by the detection threshold. […]
The detection threshold for the silver sulfadiazine was 0.0006 mg/ml. When no peak was detected, the result was increased by the detection threshold.
• A calibration straight line was plotted using the calibration points, and the equation of the straight line y=ax+b (r^2>0.999), in which y=surface area under the peak x=concentration of the standard (in mg/ml) r^2=determination coefficient, was calculated. • The content of potassium sucrose octasulfate or silver sulfadiazine (x) was calculated. […]
The percentage of release of the active substance is calculated according to the following formula: […]

[2] = tested on: normal human dermal fibroblasts (NHDF) R9PF2; assay: Effect of dressings on fibroblast cultures (MTT test, tritiated thymidine incorporation); assay type: cell-based; details: releasing agent in dressings
Procedure: • Type: pool of normal human dermal fibroblasts (NHDF) R9PF2 • Culture: 37° C., 5% CO2 Culture Medium: • DMEM (Dulbecco's Modified Eagle Medium, Invitrogen 21969035) • 2 mM L-glutamine (Invitrogen 25030024) • 50 UI/ml penicillin, 50 μg/ml streptomycin (Invitrogen 15070063) • 10% fetal calf serum (v/v, Invitrogen 10270098). Products Tested:
Dressings according to examples 1 and 23 were cut to the size of the wells and tested.
The fibroblasts were seeded at confluence in a 12-well plate.
Pieces of each dressing were cut to a size of 1.4 cm×1.4 cm (i.e. 1.96 cm^2), applied to the surface of the fibroblasts and held in place using a plug. A control without dressing but with a plug, and also a control without dressing and without plug were carried out.
The cells were then incubated for 48 hours, 96 hours and 168 hours (7 days) at 37° C. and 5% CO2. For each incubation time, the metabolic activity was measured using a standard MTT test, which accounts for the mitochondrial dehydrogenases activity. Tritiated thymidine ([methyl-3H]-thymidine, Amersham TRK 686 2.5 μCi/ml final concentration) was added during the last 24 hours of incubation, and then the DNA of the cells of the cell layers was extracted and purified and the radioactivity incorporated into the DNA was counted using a scintillation counter.
All experiments were carried out in triplicate. […]

polysorbate 80
Release of the active substance with the releasing agent, comparison in words [1]: substantially the same release of the active substance | Effect on fibroblasts (toxicity / proliferation), in words [2]: exhibits toxicity with respect to these cells
